Measured values taken from US20210382058A1, “PATIENT SELECTION FOR TREATMENT OF MYC POSITIVE CANCERS WITH INDENOISOQUINOLINES” (Purdue Research Foundation, priority 2020, published 2021).
Where two headings read alike, the source gives them in different places.

Columns and labels:
[1] = system: MYC protein expression in MCF-7 breast cancer cells; experiment: Western blotting of MYC protein level in MCF-7 cells; assay type: cell-based, human; details: Homo sapiens, MCF7; western blotting, MCF-7 cells, 0.5, 1, 2, and 4 μM, 24 hours; read-out: MYC Inhibition
Outline: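 Immunoblotting with ECL detection quantified MYC, with GAPDH (1:2000) as reference and anti-MYC at 1:1000.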

NCI-60 cancer cell lines = experiment: NCI-60 cancer cell line drug screen (GI50, MGM); assay type: cell-based, human; details: Homo sapiens; for GI50: read-out: Antiproliferative Activities [GI50 (μM)]
Description: Cancer cells were incubated with the test compounds at five concentrations ranging from 100 μM to 10 nM for 48 h. […] The approximate average of GI50 values across the entire panel of NCI-60 cancer cell lines for each compound was recorded as the MGM value.

human topoisomerase I = biological target: T1, human topoisomerase I (Homo sapiens, UniProt P11387); details: relative topoisomerase I inhibition levels, previously determined, six levels (0 - 5, +++++ = 5); cited from earlier work
T1 sequence (P11387 1-765): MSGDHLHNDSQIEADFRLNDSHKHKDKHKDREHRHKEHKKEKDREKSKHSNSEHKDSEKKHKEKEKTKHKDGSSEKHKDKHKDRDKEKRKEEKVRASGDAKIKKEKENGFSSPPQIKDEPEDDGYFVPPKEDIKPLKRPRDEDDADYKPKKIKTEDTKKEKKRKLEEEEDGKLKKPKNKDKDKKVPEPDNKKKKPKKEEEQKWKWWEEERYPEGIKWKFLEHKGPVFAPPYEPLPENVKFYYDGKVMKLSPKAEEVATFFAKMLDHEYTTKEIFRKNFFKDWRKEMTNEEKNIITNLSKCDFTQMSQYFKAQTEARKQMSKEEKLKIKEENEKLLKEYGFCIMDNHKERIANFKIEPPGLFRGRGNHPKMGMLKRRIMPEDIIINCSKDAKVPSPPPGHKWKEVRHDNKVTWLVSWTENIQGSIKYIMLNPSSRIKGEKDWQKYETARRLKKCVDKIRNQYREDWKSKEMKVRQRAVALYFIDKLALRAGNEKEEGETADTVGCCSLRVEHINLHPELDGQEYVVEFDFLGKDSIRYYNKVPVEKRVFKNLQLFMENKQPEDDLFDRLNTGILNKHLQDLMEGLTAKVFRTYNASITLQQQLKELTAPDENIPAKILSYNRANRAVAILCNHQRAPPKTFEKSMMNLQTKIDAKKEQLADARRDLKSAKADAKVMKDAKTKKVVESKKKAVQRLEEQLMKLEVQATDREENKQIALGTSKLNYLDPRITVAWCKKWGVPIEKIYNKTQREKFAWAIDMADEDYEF

CNCCCn1c2c(c3ccc(Cl)cc3c1=O)C(=O)c1cc(OC)cnc1-2 [Compound 3]
minimal effective concentration [1]: 0.5 to 1 µM
GI50 (NCI-60 cancer cell lines; 786-0, Renal Cancer, 786-0): 0.32 µM
GI50 (NCI-60 cancer cell lines; A498, Renal Cancer, A498): 0.53 µM
GI50 (NCI-60 cancer cell lines; A549, Non-Small Cell Lung Cancer, A549/ATCC): 0.45 µM
GI50 (NCI-60 cancer cell lines; ACHN, Renal Cancer, ACHN): 0.22 µM
GI50 (NCI-60 cancer cell lines; BT-549, Breast Cancer, BT-549): 0.65 µM
GI50 (NCI-60 cancer cell lines; CAKI-1, Renal Cancer, CAKI-1): 0.06 µM
GI50 (NCI-60 cancer cell lines; CCRF-CEM, Leukemia, CCRF-CEM): 0.06 µM
GI50 (NCI-60 cancer cell lines; COLO 205, Colon Cancer, COLO 205): 0.5 µM
GI50 (NCI-60 cancer cell lines; DU-145, Prostate Cancer, DU-145): 0.33 µM
GI50 (NCI-60 cancer cell lines; EKVX, Non-Small Cell Lung Cancer, EKVX): 1.2 µM
GI50 (NCI-60 cancer cell lines; HCC 2998, Colon Cancer, HCC-2998): 1.41 µM
GI50 (NCI-60 cancer cell lines; HCT-15, Colon Cancer, HCT-15): 1.11 µM
GI50 (NCI-60 cancer cell lines; HCT-116, Colon Cancer, HCT-116): 0.55 µM
GI50 (NCI-60 cancer cell lines; HL-60, Leukemia, HL-60(TB)): 0.6 µM
GI50 (NCI-60 cancer cell lines; HOP-62, Non-Small Cell Lung Cancer, HOP-62): 0.22 µM
GI50 (NCI-60 cancer cell lines; HOP-92, Non-Small Cell Lung Cancer, HOP-92): 1.19 µM
GI50 (NCI-60 cancer cell lines; HT-29, Colon Cancer, HT29): 1.08 µM
GI50 (NCI-60 cancer cell lines; Hs-578T, Breast Cancer, HS 578T): 1.84 µM
GI50 (NCI-60 cancer cell lines; IGROV-1, Ovarian Cancer, IGROV1): 1.14 µM
GI50 (NCI-60 cancer cell lines; K562, Leukemia, K-562): 1.14 µM
GI50 (NCI-60 cancer cell lines; KM12, Colon Cancer, KM12): 1.1 µM
GI50 (NCI-60 cancer cell lines; LOX IMVI, Melanoma, LOX IMVI): 0.16 µM
GI50 (NCI-60 cancer cell lines; Leukemia, SR): 0.14 µM
GI50 (NCI-60 cancer cell lines; MCF7, Breast Cancer, MCF7): 0.05 µM
GI50 (NCI-60 cancer cell lines; MDA-MB-231, Breast Cancer, MDA-MB-231/ATCC): 1.62 µM
GI50 (NCI-60 cancer cell lines; MDA-MB-435, Melanoma, MDA-MB-435): 1.07 µM
GI50 (NCI-60 cancer cell lines; MDA-MB-468, Breast Cancer, MDA-MB-468): 1.28 µM
GI50 (NCI-60 cancer cell lines; MOLT-4, Leukemia, MOLT-4): 0.04 µM
GI50 (NCI-60 cancer cell lines; Malme-3M, Melanoma, MALME-3M): 1.48 µM
GI50 (NCI-60 cancer cell lines; Melanoma, M14): 0.57 µM
GI50 (NCI-60 cancer cell lines; NCI-H23, Non-Small Cell Lung Cancer, NCI-H23): 0.92 µM
GI50 (NCI-60 cancer cell lines; NCI-H226, Non-Small Cell Lung Cancer, NCI-H226): 1.35 µM
GI50 (NCI-60 cancer cell lines; NCI-H322M, Non-Small Cell Lung Cancer, NCI-H322M): 1.28 µM
GI50 (NCI-60 cancer cell lines; NCI-H460, Non-Small Cell Lung Cancer, NCI-H460): 0.05 µM
GI50 (NCI-60 cancer cell lines; NCI-H522, Non-Small Cell Lung Cancer, NCI-H522): 0.37 µM
GI50 (NCI-60 cancer cell lines; OVCAR-3, Ovarian Cancer, OVCAR-3): 1.41 µM
GI50 (NCI-60 cancer cell lines; OVCAR-4, Ovarian Cancer, OVCAR-4): 1.27 µM
GI50 (NCI-60 cancer cell lines; OVCAR-5, Ovarian Cancer, OVCAR-5): 1.69 µM
GI50 (NCI-60 cancer cell lines; OVCAR-8, Ovarian Cancer, OVCAR-8): 1.18 µM
GI50 (NCI-60 cancer cell lines; Ovarian Cancer, NCl/ADR-RES): 0.54 µM
GI50 (NCI-60 cancer cell lines; Prostate Cancer, PC-3): 1.02 µM
GI50 (NCI-60 cancer cell lines; RPMI-8226, Leukemia, RPMI-8226): 1.47 µM
GI50 (NCI-60 cancer cell lines; RXF 393, Renal Cancer, RXF 393): 1.3 µM
GI50 (NCI-60 cancer cell lines; Renal Cancer, U0-31): 1.08 µM
GI50 (NCI-60 cancer cell lines; SF-268, CNS Cancer, SF-268): 0.4 µM
GI50 (NCI-60 cancer cell lines; SF-295, CNS Cancer, SF-295): 0.13 µM
GI50 (NCI-60 cancer cell lines; SF-539, CNS Cancer, SF-539): 0.73 µM
GI50 (NCI-60 cancer cell lines; SK-MEL-2, Melanoma, SK-MEL-2): 13.2 µM
GI50 (NCI-60 cancer cell lines; SK-MEL-5, Melanoma, SK-MEL-5): 1.12 µM
GI50 (NCI-60 cancer cell lines; SK-MEL-28, Melanoma, SK-MEL-28): 1.62 µM
GI50 (NCI-60 cancer cell lines; SK-OV-3, Ovarian Cancer, SK-OV-3): 0.66 µM
GI50 (NCI-60 cancer cell lines; SN12C, Renal Cancer, SN12C): 1.18 µM
GI50 (NCI-60 cancer cell lines; SNB-19, CNS Cancer, SNB-19): 0.61 µM
GI50 (NCI-60 cancer cell lines; SNB-75, CNS Cancer, SNB-75): 0.26 µM
GI50 (NCI-60 cancer cell lines; SW-620, Colon Cancer, SW-620): 0.08 µM
GI50 (NCI-60 cancer cell lines; T47D, Breast Cancer, T-47D): 1.12 µM
GI50 (NCI-60 cancer cell lines; U-251, CNS Cancer, U251): 0.3 µM
GI50 (NCI-60 cancer cell lines; UACC-62, Melanoma, UACC-62): 0.57 µM
GI50 (NCI-60 cancer cell lines; UACC-257, Melanoma, UACC-257): 2.24 µM
mean GI50 across NCI-60 panel (MGM) (NCI-60 cancer cell lines; average of GI50 values across the entire panel of NCI-60 cancer cell lines): 600 nM
Top1 Inhibiton (human topoisomerase I): ++ (medium inhibition, ++, MYC expression inhibited at 2.0 μM, or no clear dose-dependent MYC inhibition)
